Assay [1] concerns breast cancer cell line HCC70. The assay is described as follows: CellTiter-Glo Luminescent (CTG) assay, cell activity suppression, breast cancer cell line HCC70. The assay is classed as cell-based. The note with it: HCC70, 100 μM or 500 μM, 72 hours, compared to control group (FIG. 5). For orientation: ATP-based viability assays read luminescence as a measure of living cells.
For assay [2], the system named is breast cancer cell line MDA-MB-231. Briefly: Clonogenic assay, colony formation suppression, breast cancer cell line MDA-MB-231. The note with it: MDA-MB-231, 100 μM or 500 μM, 14 days, compared to control group (FIG. 4). It is filed as cell-based.

As for “AQTITGKT (Oligopeptide #1 AQTITGKT) [oligopeptide of General Formula A-Q-T-X-T-G-K-T, X is isoleucine]”, the “suppression of the activity of cancer cells (amount of ATP, CTG assay)” value in assay [1] is “significant effects on suppression of the colony formation and the activity of cancer cells”. For the same sequence, in assay [2], the “suppression of colony formation (clonogenic assay)” value was “significant effects on suppression of the colony formation”.
With AQTLTGKT, the “suppression of the activity of cancer cells (amount of ATP, CTG assay)” value in assay [1] was “significant effects on suppression of the colony formation and the activity of cancer cells”. The “suppression of colony formation (clonogenic assay)” value in assay [2] was “significant effects on suppression of the colony formation”.

The values are drawn from US20220204560A1, “NOVEL OLIGOPEPTIDE, AND PHARMACEUTICAL COMPOSITION FOR PREVENTING OR TREATING CANCER, COMPRISING THE SAME AS AN ACTIVE INGREDIENT” (L-BASE CO., LTD., priority 2019, published 2022).
